Results: patent publication US20250236613A1, “SARM1 MODULATORS, PREPARATIONS, AND USES THEREOF” (SIRONAX LTD., priority 2021, published 2025)

Biological target: SARM1 (50-724) (Homo sapiens (Human), UniProt Q6SZW1)
Assay: SARM1 (50-724) enzymatic assay
Format: biochemical
Settings: SARM1 inhibitory activity; 2 nM SARM1 (50-724), 200 μM NMN activator, 100 μM NAD+ substrate, 1 h, LC-MS/MS
Method: The enzymatic assay was performed in a 384-well plate using Dulbecco's PBS buffer as the reaction buffer. Purified SARM1 (50-724) with a final concentration of 2 nM was pre-incubated with the test compound at 1% DMSO final assay concentration for 15 min at room temperature. The reaction was initiated by adding the mixture of 200 μM NMN as activator and 100 μM NAD^+ as substrate. After 1 h of incubation at room temperature, the reaction was terminated with 10 times volume of 70% acetonitrile, then centrifuged at 3800 rpm for 10 min. The samples were analyzed using LC-MS/MS after diluted to the proper concentration by 10 mM ammonium acetate (pH 9.75).

SARM1 (50-724), sequence (Q6SZW1 50-724): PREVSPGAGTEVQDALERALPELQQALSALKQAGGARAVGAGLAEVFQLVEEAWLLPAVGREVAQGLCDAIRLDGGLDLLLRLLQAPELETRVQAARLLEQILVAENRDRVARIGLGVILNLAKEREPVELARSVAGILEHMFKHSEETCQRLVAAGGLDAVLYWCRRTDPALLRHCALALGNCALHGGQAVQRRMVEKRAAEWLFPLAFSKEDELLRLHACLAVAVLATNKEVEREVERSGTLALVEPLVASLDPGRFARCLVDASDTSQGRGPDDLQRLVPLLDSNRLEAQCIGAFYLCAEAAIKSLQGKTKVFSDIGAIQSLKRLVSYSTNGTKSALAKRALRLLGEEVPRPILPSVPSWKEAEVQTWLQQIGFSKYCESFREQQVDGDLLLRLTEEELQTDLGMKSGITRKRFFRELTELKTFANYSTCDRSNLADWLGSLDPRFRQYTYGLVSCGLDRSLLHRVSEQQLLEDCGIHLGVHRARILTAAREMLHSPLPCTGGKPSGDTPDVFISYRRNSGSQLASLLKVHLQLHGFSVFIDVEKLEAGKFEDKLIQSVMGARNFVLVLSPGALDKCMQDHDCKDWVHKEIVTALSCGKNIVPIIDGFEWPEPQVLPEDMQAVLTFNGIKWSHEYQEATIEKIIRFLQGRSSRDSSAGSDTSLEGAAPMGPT

Compared with `O=c1cc(-c2cccnc2)cc[nH]1` [Compound 1, [3,4′-bipyridin]-2′(1′H)-one], `Cc1ccncc1-c1cc[nH]c(=O)c1` [Compound 2, 4-methyl-[3,4′-bipyridin]-2′(1′H)-one] is lower in IC50: 5 to 15 µM for the first, under 5 µM for the second. The second is the more potent here.

First: COc1ccncc1-c1cc[nH]c(=O)c1 [Compound 3, 4-methoxy-[3,4′-bipyridin]-2′(1′H)-one]
Second: COc1cc(-c2cnccc2C)ccc1O [Compound 30, 2-methoxy-4-(4-methylpyridin-3-yl)phenol]
The IC50 of the first is lower: under 5 µM for the first, over 30 µM for the second.

`Cc1ccncc1-c1cccc(O)c1` [Compound 4, 3-(4-methylpyridin-3-yl)phenol] and `Cc1ccncc1-c1cccc(C(F)F)c1` [Compound 62, 3-(3-(difluoromethyl)phenyl)-4-methylpyridine] cannot be ordered by IC50: under 5 µM for the first, under 5 µM for the second.

`Cc1ccncc1-c1cc(O)cc(C#N)c1` [Compound 5, 3-hydroxy-5-(4-methylpyridin-3-yl)benzonitrile] and `Cc1ccncc1-c1cc(O)cc(Br)c1` [Compound 16, 3-bromo-5-(4-methylpyridin-3-yl)phenol] cannot be ordered by IC50: under 5 µM for the first, under 5 µM for the second.

First: Cc1ccncc1-c1ccc(O)c(C#N)c1 [Compound 6, 2-hydroxy-5-(4-methylpyridin-3-yl)benzonitrile]
Second: Cc1ccncc1-c1ccc(O)c(F)c1 [Compound 11, 2-fluoro-4-(4-methylpyridin-3-yl)phenol]
The IC50 of the first is lower: under 5 µM for the first, over 30 µM for the second. The first is the more potent here.

`Cc1ccncc1-c1cccc(S(N)(=O)=O)c1` [Compound 7, 3-(4-methylpyridin-3-yl)benzenesulfonamide] and `Cc1ccncc1-c1ccc(O)c(Br)c1` [Compound 15, 2-bromo-4-(4-methylpyridin-3-yl)phenol] cannot be ordered by IC50: under 5 µM for the first, under 5 µM for the second.

`Cc1ccncc1-c1ccc(CN)cc1` [Compound 8, (4-(4-methylpyridin-3-yl)phenyl)methanamine] and `Cc1ccncc1-c1ccc(O)cc1` [Compound 9, 4-(4-methylpyridin-3-yl)phenol] cannot be ordered by IC50: under 5 µM for the first, under 5 µM for the second.

First: Oc1cccc(-c2cccnc2)c1 [Compound 10, 3-(pyridin-3-yl)phenol]
Second: Cc1ccncc1-c1cncc(O)c1 [Compound 56, 4′-methyl-[3,3′-bipyridin]-5-ol]
The IC50 of the first is higher: 15 to 30 µM for the first, 5 to 15 µM for the second.

`Cc1ccncc1-c1ccc(O)cc1F` [Compound 12, 3-fluoro-4-(4-methylpyridin-3-yl)phenol] and `Cc1ccncc1-c1cc(O)ccc1F` [Compound 14, 4-fluoro-3-(4-methylpyridin-3-yl)phenol] cannot be ordered by IC50: over 30 µM for the first, over 30 µM for the second.

Going from `Cc1ccncc1-c1cccc(O)c1F` [Compound 13, 2-fluoro-3-(4-methylpyridin-3-yl)phenol] to `Cc1ccncc1-c1cccc(O)c1C` [Compound 26, 2-methyl-3-(4-methylpyridin-3-yl)phenol], the IC50 rises from under 5 µM to over 30 µM. The first is the more potent here.

Compared with `Cc1ccncc1-c1ccc(Br)c(O)c1` [Compound 17, 2-bromo-5-(4-methylpyridin-3-yl)phenol], `Cc1ccncc1-c1ccc(F)c(O)c1` [Compound 19, 2-fluoro-5-(4-methylpyridin-3-yl)phenol] is higher in IC50: under 5 µM for the first, 5 to 15 µM for the second. The first is the more potent here.

`Cc1ccncc1-c1ccc2c(c1)C(=O)NCC2` [Compound 18, 7-(4-methylpyridin-3-yl)-3,4-dihydroisoquinolin-1(2H)-one] and `Cc1ccncc1-c1ccc2c(c1)CCN2` [Compound 33, 5-(4-methylpyridin-3-yl)indoline] fall in the same range of IC50: 15 to 30 µM for the first, 15 to 30 µM for the second.

`Cc1ccncc1-c1cc(O)cc(F)c1` [Compound 20, 3-fluoro-5-(4-methylpyridin-3-yl)phenol] and `Cc1ccncc1-c1cc(O)cc(Cl)c1` [Compound 60, 3-chloro-5-(4-methylpyridin-3-yl)phenol] cannot be ordered by IC50: under 5 µM for the first, under 5 µM for the second.

First: Cc1ccncc1-c1ccc2[nH]ccc2c1 [Compound 21, 5-(4-methylpyridin-3-yl)-1H-indole]
Second: Cc1ccncc1-c1ccc2cc[nH]c2c1 [Compound 23, 6-(4-methylpyridin-3-yl)-1H-indole]
The IC50 of the first is lower: under 5 µM for the first, 15 to 30 µM for the second.

`Cc1ccncc1-c1ccc2[nH]ncc2c1` [Compound 24, 5-(4-methylpyridin-3-yl)-1H-indazole] and `Cc1ccncc1-c1ccc2[nH]cnc2c1` [Compound 25, 5-(4-methylpyridin-3-yl)-1H-benzo[d]imidazole] cannot be ordered by IC50: under 5 µM for the first, under 5 µM for the second.

Going from `Cc1ccncc1-c1cccc(O)c1Cl` [Compound 27, 2-chloro-3-(4methylpyridin-3-yl)phenol] to `Cc1ccncc1-c1ccc(O)c(Cl)c1` [Compound 31, 2-chloro-4-(4-methylpyridin-3-yl)phenol], the IC50 falls from over 30 µM to under 5 µM.

`Cc1cc(-c2cnccc2C)ccc1O` [Compound 28, 2-methyl-4-(4-methylpyridin-3-yl)phenol] and `Cc1ccc(-c2cnccc2C)cc1O` [Compound 32, 2-methyl-5-(4-methylpyridin-3-yl)phenol] cannot be ordered by IC50: under 5 µM for the first, under 5 µM for the second.

First: CCc1cc(-c2cnccc2C)ccc1O [Compound 29, 2-ethyl-4-(4-methylpyridin-3-yl)phenol]
Second: Cc1ccncc1-c1ccc(O)c(N)c1 [Compound 43, 2-amino-4-(4-methylpyridin-3-yl)phenol]
The IC50 of the first is lower: under 5 µM for the first, 5 to 15 µM for the second.

`Cc1ccncc1-c1cc2cc[nH]c2cc1F` [Compound 34, 6-fluoro-5-(4-methylpyridin-3-yl)-1H-indole] and `Cc1ccncc1-c1ccc(F)c(O)c1F` [Compound 35, 2,6-difluoro-3-(4-methylpyridin-3-yl)phenol] cannot be ordered by IC50: over 30 µM for the first, over 30 µM for the second.

`Cc1ccncc1-c1ccc2[nH]nnc2c1` [Compound 36, 5-(4-methylpyridin-3-yl)-1H-benzol[d][1,2,3]triazole] and `Cc1ccncc1-c1ccc2[nH]c(N)nc2c1` [Compound 64, 5-(4-methylpyridin-3-yl)-1H-benzo[d]imidazol-2-amine] cannot be ordered by IC50: under 5 µM for the first, under 5 µM for the second.

First: Cc1ccncc1-c1ccc2c(c1F)NC(=O)C2=O [Compound 37, 7-fluoro-6-(4-methylpyridin-3-yl)indoline-2,3-dione]
Second: Cc1ccncc1-c1ccc(O)c(O)c1F [Compound 39, 3-fluoro-4-(4-methylpyridin-3-yl)benzene-1,2-diol]
The IC50 of the first is lower: 5 to 15 µM for the first, 15 to 30 µM for the second.

First: CC(=O)c1ccc(-c2cnccc2C)cc1O [Compound 38, 1-(2-hydroxy-4-(4-methylpyridin-3-yl)phenyl)ethan-1-one]
Second: Cc1ccncc1-c1ccc(O)c(O)c1 [Compound 47, 4-(4-methylpyridin-3-yl)benzene-1,2-diol]
The IC50 of the first is higher: 5 to 15 µM for the first, under 5 µM for the second. The second is the more potent here.

First: Cc1ccncc1-c1ccc2[nH]c(=O)oc2c1 [Compound 40, 6-(4-methylpyridin-3-yl)benzo[d]oxazol-2(3H)-one]
Second: Cc1ccncc1-c1ccc2oc(=O)[nH]c2c1 [Compound 52, 5-(4-methylpyridin-3-yl)benzo[d]oxazol-2(3H)-one]
The IC50 of the first is lower: under 5 µM for the first, 5 to 15 µM for the second.

Compared with `Cc1ccncc1-c1ccc2c(c1)CC(=O)N2` [Compound 41, 5-(4-methylpyridin-3-yl)indolin-2-one], `Cc1ccncc1-c1ccc2c(c1)NC(=O)C2` [Compound 55, 6-(4-methylpyridin-3-yl)indolin-2-one] is higher in IC50: under 5 µM for the first, 15 to 30 µM for the second.

`Cc1ccncc1-c1ccc(N)c(O)c1` [Compound 42, 2-amino-5-(4-methylpyridin-3-yl)phenol] and `Cc1ccncc1-c1ccc2[nH]c(=O)[nH]c2c1` [Compound 44, 5-(4-methylpyridin-3-yl)-1,3-dihydro-2H-benzo[d]imidazol-2-one] cannot be ordered by IC50: under 5 µM for the first, under 5 µM for the second.

Compared with `Cc1ccncc1-c1ccc2c(c1)OCC(=O)N2` [Compound 45, 7-(4-methylpyridin-3-yl)-2H-benzo[b][1,4]oxazin-3(4H)-one], `Cc1ccncc1-c1ccc2c(c1)NC(=O)CO2` [Compound 51, 6-(4-methylpyridin-3-yl)-2H-benzo[b][1,4]oxazin-3(4H)-one] is lower in IC50: 5 to 15 µM for the first, under 5 µM for the second.

First: Cc1ccncc1-c1ccc2c(c1)CNC(=O)N2 [Compound 46, 6-(4-methylpyridin-3-yl)-3,4-dihydroquinazolin-2(1H)-one]
Second: Cc1ccncc1-c1ccc2c(c1)COC(=O)N2 [Compound 59, 6-(4-methylpyridin-3-yl)-1,4-dihydro-2H-benzo[d][1,3]oxazin-2-one]
The IC50 of the first is higher: over 30 µM for the first, under 5 µM for the second. The second is the more potent here.

First: Cc1ccncc1-c1cnc2[nH]ncc2c1 [Compound 48, 5-(4-methylpyridin-3-yl)-1H-pyrazolo[3,4-b]pyridine]
Second: Cc1ccncc1-c1cc2cn[nH]c2cn1 [Compound 49, 5-(4-methylpyridin-3-yl)-1H-pyrazolo[3,4-c]pyridine]
The IC50 of the first is lower: 15 to 30 µM for the first, over 30 µM for the second. The first is the more potent here.

`Cc1ccncc1-c1ccc2[nH]ncc2n1` [Compound 50, 5-(4-methylpyridin-3-yl)-1H-pyrazolo[4,3-b]pyridine] and `Cc1ccncc1-c1cc(Cl)c2[nH]ncc2c1` [Compound 58, 7-chloro-5-(4-methylpyridin-3-yl)-1H-indazole] fall in the same range of IC50: 5 to 15 µM for the first, 5 to 15 µM for the second.

First: Cc1ccncc1-c1ccc2c(c1)OCCN2 [Compound 53, 7-(4-methylpyridin-3-yl)-3,4-dihydro-2H-benzo[b][1,4]oxazine]
Second: Cc1ccncc1-c1ccc2c(c1)NCCO2 [Compound 54, 6-(4-methylpyridin-3-yl)-3,4-dihydro-2H-benzo[b][1,4]oxazine]
The IC50 of the first is higher: over 30 µM for the first, 15 to 30 µM for the second.

`Cc1ccncc1-c1ccc2[nH]c(=O)n(C)c2c1` [Compound 57, 1-methyl-6-(4-methylpyridin-3-yl)-1,3-dihydro-2H-benzo[d]imidazol-2-one] and `Cc1ccncc1-c1cc(F)c(O)c(Cl)c1` [Compound 61, 2-chloro-6-fluoro-4-(4-methylpyridin-3-yl)phenol] fall in the same range of IC50: 5 to 15 µM for the first, 5 to 15 µM for the second.

In the case of `Cc1ccncc1-c1cc(O)cc(C(F)(F)F)c1` [Compound 63, 3-(4-methylpyridin-3-yl)-5-(trifluoromethyl)phenol], the IC50 is reported as under 5 µM.
